These results are taken from patent publication US20230031406A1, “COMPOUNDS AND COMPOSITIONS FOR TREATING CONDITIONS ASSOCIATED WITH NLRP ACTIVITY” (Novartis AG, priority 2018, published 2023).

The structures appear in SMILES notation. pIC50: −log10 of the molar value. Read-outs that look alike come from different tables or passages of the source.

This test has as its system PMA-differentiated THP-1 cells. As to the kind of experiment: IL-1β production in PMA-differentiated THP-1 cells stimulated with gramicidin (hTHP-1 assay containing 2% fetal bovine serum; Procedures 1 and 2). The note with it: 2% fetal bovine serum. The class given is cell-based, human. A digest of the protocol: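 THP-1 cells were differentiated with PMA (20 ng/ml, 16-18 h), detached, and plated at 50,000 cells/well in RPMI 1640 with 2% FBS. They were pre-treated with compound (0.0017–100 μM, 0.37% DMSO) for 1 h, then stimulated with gramicidin (5 μM) for 2 h. Supernatant IL-1β was measured by HTRF.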

Setting [1] is: Homo sapiens, THP-1, Table B3, hTHP-1 assay, class symbols, read-out: IC50.
Where [2] appears, read: Homo sapiens, THP-1, Table B2, class symbols, read-out: hTHP-1 IC50.
[3] abbreviates: Table B4, class symbols, read-out: hTHP-1 IC50.
[4] abbreviates: Table B3, hTHP-1 assay, class symbols, read-out: IC50.
[5] abbreviates: Homo sapiens, THP-1, Table B1, numeric bounds, read-out: Average IC50 of compounds in hTHP-1 assay: hTHP-1 IC50.
Where [6] appears, read: Table B1, class symbols, read-out: Average IC50 of compounds in hTHP-1 assay: hTHP-1 IC50.

Consider `Cc1c(C(C)C)nc2c(c1NC(=O)N=S(N)(=O)c1sc(C(C)(C)O)cc1F)CCC2` (single isomer, unassigned) [Compound 645b, (S) or (R)-3-Fluoro-5-(2-hydroxypropan-2-yl)-N′-((2-isopropyl-3-methyl-6,7-dihydro-5H-cyclopenta[b]pyridin-4-yl)carbamoyl) thiophene-2-sulfonimidamide], for which, where the note is “Table B2, class symbols, read-out: hTHP-1 IC50”, the pIC50 – broadly, the IC50 on a negative log10 scale, so that one unit is a factor of ten – is 4.52 to 5.30.

For the molecule `CC1(C)CCc2nc3c(c(NC(=O)N=S(N)(=O)c4ccc([C@](C)(O)COCCOCc5ccccc5)s4)c21)CCC3` (stereo partly drawn) [Example 625, 5-((R)-1-(2-(benzyloxy)ethoxy)-2-hydroxypropan-2-yl)-N′-((1,1-dimethyl-1,2,3,5,6,7-hexahydrodicyclopenta[b,e]pyridin-8-yl)carbamoyl)thiophene-2-sulfonimidamide], the pIC50 under setting [1] is 5.30 to 6.00.

In the case of `Cc1c(C(F)(F)F)nc2c(c1NC(=O)N=S(N)(=O)c1cnc(C(C)(O)CO)s1)CCC2` (single isomer, unassigned) [Compound 605d, (R, S) and (S, S) or (R, R) and (S, R)-2-(l,2-Dihydroxypropan-2-yl)-N′-((3-methyl-2-(trifluoromethyl)-6,7-dihydro-5H-cyclopenta[b]pyridin-4-yl)carbamoyl) thiazole-5-sulfonimidamide], under “Homo sapiens, THP-1, Table B2, numeric bounds, read-out: hTHP-1 IC50”, the pIC50 is below 4.52.

Turning to `Cc1c(C(F)(F)F)nc2c(c1NC(=O)N=S(N)(=O)c1ccn(C(C)C)n1)CCC2` (single isomer, unassigned) [Compound 628b, (R) or (S)-1-Isopropyl-N′-((3-methyl-2-(trifluoromethyl)-6,7-dihydro-5H-cyclopenta[b]pyridin-4-yl)carbamoyl)-1H-pyrazole-3-sulfonimidamide], under setting [2], the pIC50 is 6.00 to 6.70.

As for `CC(C)n1cc(F)c(S(N)(=O)=NC(=O)Nc2c3c(nc4c2CCC4)CCC3)n1` (single isomer, unassigned) [Example 786, (S) or (R)-4-fluoro-N′-((1,2,3,5,6,7-hexahydrodicyclopenta [b,e]pyridin-8-yl)carbamoyl)-1-isopropyl-1H-pyrazole-3-sulfonimidamide], under setting [3], the pIC50 is 4.52 to 5.30.

Turning to `CCn1cc(F)c(S(N)(=O)=NC(=O)Nc2c3c(nc(C(F)(F)F)c2-c2cccc(F)c2)CCC3)n1` (single isomer, unassigned) [Example 781, (R) or (S)-1-ethyl-4-fluoro-N′-((3-(3-fluorophenyl)-2-(trifluoromethyl)-6,7-dihydro-5H-cyclopenta[b]pyridin-4-yl)carbamoyl)-1H-pyrazole-3-sulfonimidamide], the pIC50 under setting [3] was 7.40 to 8.10.

Consider `C[C@](O)(CO)c1cc(F)c(S(N)(=O)=NC(=O)Nc2c3c(nc4c2CCC42CC2)CCC3)s1` (stereo partly shown) [Compound 716a], for which the pIC50 under setting [2] was 6.70 to 7.40.

Take `Cc1c(C(F)(F)F)nc2c(c1NC(=O)N=S(N)(=O)c1cnc(C(C)(C)O)s1)CCC2C` (single isomer, unassigned) [Example 706, (R, R) or (R, S)-N′-((3,7-dimethyl-2-(trifluoromethyl)-6,7-dihydro-5H-cyclopenta[b]pyridin-4-yl)carbamoyl)-2-(2-hydroxypropan-2-yl)thiazole-5-sulfonimidamide]: the pIC50 under setting [4] was 6.00 to 6.70.

`CC(C)n1cc(F)c(S(N)(=O)=NC(=O)Nc2c3c(nc4c2CC[C@H]4C)CCC3)n1` (stereo partly drawn) [Example 739, 4-Fluoro-1-isopropyl-N′-(((R)-3-methyl-1,2,3,5,6,7-hexahydrodicyclopenta[b,e]pyridin-8-yl)carbamoyl)-1H-pyrazole-3-sulfonimidamide]: under “Homo sapiens, THP-1, Table B4, class symbols, read-out: hTHP-1 IC50”, the negative-log IC50 (pIC50) was 7.40 to 8.10.

For the molecule `Cc1c(-c2ccccc2)nc2c(c1NC(=O)N=S(N)(=O)c1cnc(C(C)(C)O)s1)CCC2` (stereo not shown) [Compound 143, 2-(2-hydroxypropan-2-yl)-N′-((3-methyl-2-phenyl-6,7-dihydro-5H-cyclopenta[b]pyridin-4-yl)carbamoyl)thiazole-5-sulfonimidamide], the pIC50 under setting [5] is below 4.52.

Regarding `CC(C)(O)c1cccc(S(N)(=O)=NC(=O)Nc2c3c(nc4c2CCC4(C)C)CCC3)n1` (stereo not shown) [Example 630, N′-((3,3-dimethyl-1,2,3,5,6,7-hexahydrodicyclopenta[b,e]pyridin-8-yl)carbamoyl)-6-(2-hydroxypropan-2-yl)pyridine-2-sulfonimidamide], the pIC50 under setting [1] is 4.52 to 5.30.

For the molecule `CC(C)(O)c1ncc(S(N)(=O)=NC(=O)Nc2c3c(nc4c2CCC4)CCC3)s1` (single isomer, unassigned) [Compound 128a, (R) or (S)-N′-((1,2,3,5,6,7-hexahydrodicyclo-penta[b,e]pyridin-8-yl)carbamoyl)-2-(2-hydroxypropan-2-yl)thiazole-5-sulfonimidamide], the pIC50 under setting [6] was 6.00 to 6.70.

`CC(C)(O)c1nc(CO)c(S(N)(=O)=NC(=O)Nc2c3c(nc4c2CCC4(C)C)CCC3)s1` (single isomer, unassigned) [Compound 121b, (S) or (R)-N′-((3,3-dimethyl-1,2,3,5,6,7-hexahydro-dicyclopenta[b,e]pyridin-8-yl)carbamoyl)-4-(hydroxymethyl)-2-(2-hydroxypropan-2-yl)thiazole-5-sulfonimidamide]: the pIC50 under setting [6] was 4.52 to 5.30.

With `C[C@@H]1CCc2c1nc1c(c2NC(=O)N=S(N)(=O)c2ccn(-c3ccccc3)n2)CCC1` (stereo partly shown) [Compound 646a], the pIC50 under setting [2] is 5.30 to 6.00.

For the molecule `CC(C)(O)c1cc(F)c(S(N)(=O)=NC(=O)Nc2c3c(nc4c2CCC4)CCC3)s1` (single isomer, unassigned) [Compound 105a, (R) or (S)-3-fluoro-N′-((1,2,3,5,6,7-hexahydro-dicyclopenta[b,e]pyridin-8-yl)carbamoyl)-5-(2-hydroxypropan-2-yl)thio-phene-2-sulfonimidamide], under setting [6], the pIC50 was 6.70 to 7.40.

For `C[C@@H]1CCc2c1nc1c(c2NC(=O)N=S(N)(=O)c2nn(C(F)F)cc2F)CCC1` (single isomer, unassigned) [Example 679, (R) or (S)-1-(difluoromethyl)-4-fluoro-N′-(((R)-3-methyl-1,2,3,5,6,7-hexahydrodicyclopenta[b,e]pyridin-8-yl)carbamoyl)-1H-pyrazole-3-sulfonimidamide], the pIC50 under setting [4] is 6.70 to 7.40.

`Cc1nc(C)c(C)c(NC(=O)N=S(N)(=O)c2cnc(C(C)(C)O)s2)c1C` (single isomer, unassigned) [Compound 133a, (R) or (S)-2-(2-hydroxypropan-2-yl)-N′-((2,3,5,6-tetramethylpyridin-4-yl)carbamoyl)thiazole-5-sulfonimidamide]: the pIC50 under setting [5] was below 4.52.

As to `CC(C)n1ccc(S(N)(=O)=NC(=O)Nc2c3c(nc4c2CCC42CC2)CCC3)n1` (stereo not shown) [Compound 172, 1-isopropyl-N′-((1′,5′,6′,7′-tetrahydro-2′H-spiro[cyclopropane-1,3′-dicyclopenta[b,e]pyridin]-8′-yl)carbamoyl)-1H-pyrazole-3-sulfonimidamide], for the setting “Homo sapiens, THP-1, Table B1, class symbols, read-out: Average IC50 of compounds in hTHP-1 assay: hTHP-1 IC50”, the pIC50 was 6.00 to 6.70.

Turning to `CC(C)n1nc(S(N)(=O)=NC(=O)Nc2c3c(nc4c2CC[C@H]4C)CCC3)cc1CO` (stereo partly drawn) [Example 596, 5-(Hydroxymethyl)-1-isopropyl-N-(((R)-3-methyl-1,2,3,5,6,7-hexahydrodicyclopenta[b,e]pyridin-8-yl)carbamoyl)-1H-pyrazole-3-sulfonimidamide], under setting [1], the pIC50 was 5.30 to 6.00.

`CC(C)(O)c1ncc(S(N)(=O)=NC(=O)Nc2c3c(nc4c2CCC4=O)CCC3)s1` (stereo not shown) [compound 593, 2-(2-Hydroxypropan-2-yl)-N′-((3-oxo-1,2,3,5,6,7-hexahydrodicyclopenta[b,e]pyridin-8-yl)carbamoyl)thiazole-5-sulfonimidamide]: the pIC50 (Homo sapiens, THP-1, Table B3, hTHP-1 assay, numeric values, read-out: IC50) is below 4.52.

Take `Cc1c(C(F)F)nc2c(c1NC(=O)N=S(N)(=O)c1cnc(C(C)(C)O)s1)CCC2` (single isomer, unassigned) [Compound 647a, (R) or (S)-N′-((2-(difluoromethyl)-3-methyl-6,7-dihydro-5H-cyclopenta[b]pyridin-4-yl)carbamoyl)-2-(2-hydroxypropan-2-yl)thiazole-5-sulfonimidamide]: the pIC50 under setting [2] is 5.30 to 6.00.

Turning to `CC(C)n1nc(S(N)(=O)=NC(=O)Nc2c3c(nc4c2CCC4(C)C)CCC3)cc1C(C)(C)O` (stereo not shown) [Compound 615, N′-((3,3-dimethyl-1,2,3,5,6,7-hexahydrodicyclopenta[b,e]pyridin-8-yl)carbamoyl)-5-(2-hydroxypropan-2-yl)-1-isopropyl-1H-pyrazole-3-sulfonimidamide], the negative-log IC50 (pIC50) under setting [2] is 5.30 to 6.00.

In the case of `NS(=O)(=NC(=O)Nc1c2c(nc(C3CC3)c1C1CC1)CCC2)c1ccn(C(F)F)n1` (single isomer, unassigned) [Example 695, (R) or (S)-N′-((2,3-dicyclopropyl-6,7-dihydro-5H-cyclopenta [b]pyridin-4-yl)carbamoyl)-1-(difluoromethyl)-1H-pyrazole-3-sulfonimidamide], under setting [4], the pIC50 was 5.30 to 6.00.

On to `CCc1nc2c(c(NC(=O)N=S(N)(=O)c3ccn(C(F)F)n3)c1C1CC1)CCC2` (stereo not shown) [Compound 629, N′-((3-cyclopropyl-2-ethyl-6,7-dihydro-5H-cyclopenta[b]pyridin-4-yl)carbamoyl)-1-(difluoromethyl)-1H-pyrazole-3-sulfonimidamide], for which the pIC50 under setting [2] is 5.30 to 6.00.

On to `CC(C)c1nc(CO)c(S(N)(=O)=NC(=O)Nc2c3c(nc4c2CCC4(C)C)CCC3)s1` (stereo not shown) [Compound 680, N′-((3,3-dimethyl-1,2,3,5,6,7-hexahydrodicyclopenta[b,e]pyridin-8-yl)carbamoyl)-4-(hydroxymethyl)-2-isopropylthiazole-5-sulfonimidamide], for which, under setting [2], the pIC50 was 5.30 to 6.00.
